In ChEMBL document CHEMBL5226342, “Novel Reversible-Binding PET Ligands for Imaging Monoacylglycerol Lipase Based on the Piperazinyl Azetidine Scaffold” (J Med Chem, 2021):
Calls of active or inactive are those of the source. The calls are words filed in the database; no cut-off is given here.

Experiments:
[1] = biological target: T1, Neutral cholesterol ester hydrolase 1 (Mus musculus) (UniProt Q8BLF1); experiment: Displacement of FP-rhodamine from KIAA1363 in mouse brain membrane fraction preincubated for 30 mins followed by FP-rhodhamine addition for 10 mins by Activity-Based Protein Profiling analysis; format: cell membranes; conditions: time 40.0 min
T1 sequence (whole entry): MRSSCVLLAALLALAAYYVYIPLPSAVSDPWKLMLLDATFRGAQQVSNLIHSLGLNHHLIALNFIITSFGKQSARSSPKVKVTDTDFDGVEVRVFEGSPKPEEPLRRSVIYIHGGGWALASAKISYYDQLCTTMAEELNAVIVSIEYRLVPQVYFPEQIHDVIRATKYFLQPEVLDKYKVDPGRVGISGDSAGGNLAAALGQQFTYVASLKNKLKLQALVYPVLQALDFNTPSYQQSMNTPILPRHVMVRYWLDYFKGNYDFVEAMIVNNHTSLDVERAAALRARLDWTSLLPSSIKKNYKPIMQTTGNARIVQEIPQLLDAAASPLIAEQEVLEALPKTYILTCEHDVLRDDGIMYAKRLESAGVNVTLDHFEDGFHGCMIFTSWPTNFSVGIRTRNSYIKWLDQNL

[2] = biological target: T2, Lysophosphatidylserine lipase ABHD12 (Mus musculus) (UniProt Q99LR1); experiment: Displacement of FP-rhodamine from ABHD12 in mouse brain membrane fraction preincubated for 30 mins followed by FP-rhodhamine addition for 10 mins by Activity-Based Protein Profiling analysis; format: cell membranes; conditions: time 40.0 min
T2 sequence (whole entry): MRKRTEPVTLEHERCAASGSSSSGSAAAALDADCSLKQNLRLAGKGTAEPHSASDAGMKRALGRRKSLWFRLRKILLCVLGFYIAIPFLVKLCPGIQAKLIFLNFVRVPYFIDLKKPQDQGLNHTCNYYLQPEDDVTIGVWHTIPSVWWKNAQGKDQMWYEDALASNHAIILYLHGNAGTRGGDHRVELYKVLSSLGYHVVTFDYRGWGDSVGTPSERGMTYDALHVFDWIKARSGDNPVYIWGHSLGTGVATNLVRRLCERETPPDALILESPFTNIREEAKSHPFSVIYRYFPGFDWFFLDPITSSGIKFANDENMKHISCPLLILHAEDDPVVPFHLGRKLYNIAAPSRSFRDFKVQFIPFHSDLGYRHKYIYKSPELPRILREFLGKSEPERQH

[3] = biological target: T3, Fatty-acid amide hydrolase 1 (Mus musculus) (UniProt O08914); experiment: Displacement of FP-rhodamine from FAAH in mouse brain membrane fraction preincubated for 30 mins followed by FP-rhodhamine addition for 10 mins by Activity-Based Protein Profiling analysis; format: cell membranes; conditions: time 40.0 min
T3 sequence (whole entry): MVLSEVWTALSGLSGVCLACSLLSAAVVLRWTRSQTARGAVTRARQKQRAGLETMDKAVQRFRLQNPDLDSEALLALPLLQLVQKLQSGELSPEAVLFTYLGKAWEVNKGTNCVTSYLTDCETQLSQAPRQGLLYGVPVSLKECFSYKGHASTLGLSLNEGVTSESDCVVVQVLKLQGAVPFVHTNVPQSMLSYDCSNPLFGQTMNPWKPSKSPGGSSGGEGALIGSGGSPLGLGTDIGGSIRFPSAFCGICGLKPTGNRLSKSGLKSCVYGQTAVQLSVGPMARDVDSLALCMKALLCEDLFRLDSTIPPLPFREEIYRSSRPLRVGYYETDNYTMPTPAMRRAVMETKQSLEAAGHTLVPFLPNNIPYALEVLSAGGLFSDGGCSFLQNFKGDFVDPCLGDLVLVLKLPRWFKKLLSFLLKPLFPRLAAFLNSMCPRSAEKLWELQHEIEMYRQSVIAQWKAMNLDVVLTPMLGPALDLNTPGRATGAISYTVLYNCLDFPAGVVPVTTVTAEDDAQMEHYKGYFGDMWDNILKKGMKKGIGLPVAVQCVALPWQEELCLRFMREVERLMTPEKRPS

[4] = biological target: T4, Monoacylglycerol lipase ABHD6 (Mus musculus) (UniProt Q8R2Y0); experiment: Displacement of FP-rhodamine from ABHD6 in mouse brain membrane fraction preincubated for 30 mins followed by FP-rhodhamine addition for 10 mins by Activity-Based Protein Profiling analysis; format: cell membranes; conditions: time 40.0 min
T4 sequence (whole entry): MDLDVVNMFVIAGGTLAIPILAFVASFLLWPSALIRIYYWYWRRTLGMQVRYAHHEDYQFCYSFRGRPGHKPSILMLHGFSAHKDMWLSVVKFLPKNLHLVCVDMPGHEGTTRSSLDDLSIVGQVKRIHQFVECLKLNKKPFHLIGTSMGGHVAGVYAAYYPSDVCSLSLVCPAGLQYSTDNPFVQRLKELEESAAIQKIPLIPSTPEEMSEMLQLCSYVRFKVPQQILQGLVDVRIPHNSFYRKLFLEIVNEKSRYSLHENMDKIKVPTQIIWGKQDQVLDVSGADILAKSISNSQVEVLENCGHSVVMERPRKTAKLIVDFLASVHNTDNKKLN

[5] = biological target: CaV1.2 (voltage-dependent L-type calcium channel subunit alpha-1C) (Homo sapiens, UniProt Q13936); experiment: Inhibition of human CaV1.2 at 10 uM
Chain of CaV1.2 (voltage-dependent L-type calcium channel subunit alpha-1C) (Q13936 whole entry): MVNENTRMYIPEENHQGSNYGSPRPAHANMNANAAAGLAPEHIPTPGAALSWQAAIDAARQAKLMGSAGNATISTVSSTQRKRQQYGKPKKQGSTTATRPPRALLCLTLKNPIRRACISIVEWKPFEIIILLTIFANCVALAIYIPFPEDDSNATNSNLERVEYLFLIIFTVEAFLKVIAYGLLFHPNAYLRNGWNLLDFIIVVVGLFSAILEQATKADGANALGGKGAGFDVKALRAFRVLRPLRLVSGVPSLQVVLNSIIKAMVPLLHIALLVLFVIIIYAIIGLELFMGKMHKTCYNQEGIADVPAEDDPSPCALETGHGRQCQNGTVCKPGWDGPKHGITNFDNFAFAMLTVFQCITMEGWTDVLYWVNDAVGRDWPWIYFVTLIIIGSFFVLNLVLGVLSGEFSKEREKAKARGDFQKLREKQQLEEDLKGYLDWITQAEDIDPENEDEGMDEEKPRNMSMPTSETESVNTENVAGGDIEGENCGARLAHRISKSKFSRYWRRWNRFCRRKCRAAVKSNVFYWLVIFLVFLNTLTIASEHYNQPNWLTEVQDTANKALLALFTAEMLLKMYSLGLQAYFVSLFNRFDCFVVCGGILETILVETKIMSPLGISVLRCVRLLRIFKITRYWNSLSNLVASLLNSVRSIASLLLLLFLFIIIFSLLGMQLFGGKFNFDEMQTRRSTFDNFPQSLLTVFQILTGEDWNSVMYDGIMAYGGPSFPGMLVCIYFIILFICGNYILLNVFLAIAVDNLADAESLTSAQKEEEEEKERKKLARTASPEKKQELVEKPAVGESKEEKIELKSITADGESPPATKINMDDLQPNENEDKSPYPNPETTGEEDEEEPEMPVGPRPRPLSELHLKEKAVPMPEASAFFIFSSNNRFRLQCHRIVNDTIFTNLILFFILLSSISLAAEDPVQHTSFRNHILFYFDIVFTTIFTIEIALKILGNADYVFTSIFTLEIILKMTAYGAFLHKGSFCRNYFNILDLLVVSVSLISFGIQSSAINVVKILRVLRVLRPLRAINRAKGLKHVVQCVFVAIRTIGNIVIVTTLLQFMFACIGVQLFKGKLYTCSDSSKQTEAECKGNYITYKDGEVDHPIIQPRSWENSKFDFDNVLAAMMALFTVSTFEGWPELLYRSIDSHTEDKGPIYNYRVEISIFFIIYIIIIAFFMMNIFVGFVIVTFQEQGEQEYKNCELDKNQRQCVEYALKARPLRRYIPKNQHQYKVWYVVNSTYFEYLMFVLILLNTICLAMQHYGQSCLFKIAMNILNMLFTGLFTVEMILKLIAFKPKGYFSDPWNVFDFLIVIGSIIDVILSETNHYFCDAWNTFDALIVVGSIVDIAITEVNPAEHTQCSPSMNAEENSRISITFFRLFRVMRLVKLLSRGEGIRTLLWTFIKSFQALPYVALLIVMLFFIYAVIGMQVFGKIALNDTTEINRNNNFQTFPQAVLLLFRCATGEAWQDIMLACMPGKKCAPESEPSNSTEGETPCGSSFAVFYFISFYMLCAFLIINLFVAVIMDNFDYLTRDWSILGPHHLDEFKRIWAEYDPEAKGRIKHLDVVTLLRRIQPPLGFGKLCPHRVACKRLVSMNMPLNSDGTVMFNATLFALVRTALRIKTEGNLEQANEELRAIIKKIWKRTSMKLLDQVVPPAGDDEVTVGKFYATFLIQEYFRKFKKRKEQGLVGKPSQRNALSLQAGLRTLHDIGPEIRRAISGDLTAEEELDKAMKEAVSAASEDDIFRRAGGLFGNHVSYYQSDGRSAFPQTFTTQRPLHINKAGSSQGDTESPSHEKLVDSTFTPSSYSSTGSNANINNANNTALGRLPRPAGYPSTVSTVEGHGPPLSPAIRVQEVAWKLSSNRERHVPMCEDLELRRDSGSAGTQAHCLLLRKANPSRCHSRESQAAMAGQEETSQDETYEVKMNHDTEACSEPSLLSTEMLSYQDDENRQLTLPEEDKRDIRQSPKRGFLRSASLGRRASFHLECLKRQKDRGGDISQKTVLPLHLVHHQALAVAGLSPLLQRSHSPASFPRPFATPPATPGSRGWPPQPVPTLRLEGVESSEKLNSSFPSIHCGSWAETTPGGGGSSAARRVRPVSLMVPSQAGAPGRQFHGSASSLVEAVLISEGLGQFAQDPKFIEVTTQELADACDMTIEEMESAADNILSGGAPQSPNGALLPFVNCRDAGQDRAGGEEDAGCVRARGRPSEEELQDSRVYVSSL

hERG (KCNH2) = hERG (KCNH2) (Homo sapiens, UniProt Q12809); experiment: Inhibition of human ERG at 10 uM; format: toxicity
Chain of hERG (KCNH2) (Q12809 whole entry): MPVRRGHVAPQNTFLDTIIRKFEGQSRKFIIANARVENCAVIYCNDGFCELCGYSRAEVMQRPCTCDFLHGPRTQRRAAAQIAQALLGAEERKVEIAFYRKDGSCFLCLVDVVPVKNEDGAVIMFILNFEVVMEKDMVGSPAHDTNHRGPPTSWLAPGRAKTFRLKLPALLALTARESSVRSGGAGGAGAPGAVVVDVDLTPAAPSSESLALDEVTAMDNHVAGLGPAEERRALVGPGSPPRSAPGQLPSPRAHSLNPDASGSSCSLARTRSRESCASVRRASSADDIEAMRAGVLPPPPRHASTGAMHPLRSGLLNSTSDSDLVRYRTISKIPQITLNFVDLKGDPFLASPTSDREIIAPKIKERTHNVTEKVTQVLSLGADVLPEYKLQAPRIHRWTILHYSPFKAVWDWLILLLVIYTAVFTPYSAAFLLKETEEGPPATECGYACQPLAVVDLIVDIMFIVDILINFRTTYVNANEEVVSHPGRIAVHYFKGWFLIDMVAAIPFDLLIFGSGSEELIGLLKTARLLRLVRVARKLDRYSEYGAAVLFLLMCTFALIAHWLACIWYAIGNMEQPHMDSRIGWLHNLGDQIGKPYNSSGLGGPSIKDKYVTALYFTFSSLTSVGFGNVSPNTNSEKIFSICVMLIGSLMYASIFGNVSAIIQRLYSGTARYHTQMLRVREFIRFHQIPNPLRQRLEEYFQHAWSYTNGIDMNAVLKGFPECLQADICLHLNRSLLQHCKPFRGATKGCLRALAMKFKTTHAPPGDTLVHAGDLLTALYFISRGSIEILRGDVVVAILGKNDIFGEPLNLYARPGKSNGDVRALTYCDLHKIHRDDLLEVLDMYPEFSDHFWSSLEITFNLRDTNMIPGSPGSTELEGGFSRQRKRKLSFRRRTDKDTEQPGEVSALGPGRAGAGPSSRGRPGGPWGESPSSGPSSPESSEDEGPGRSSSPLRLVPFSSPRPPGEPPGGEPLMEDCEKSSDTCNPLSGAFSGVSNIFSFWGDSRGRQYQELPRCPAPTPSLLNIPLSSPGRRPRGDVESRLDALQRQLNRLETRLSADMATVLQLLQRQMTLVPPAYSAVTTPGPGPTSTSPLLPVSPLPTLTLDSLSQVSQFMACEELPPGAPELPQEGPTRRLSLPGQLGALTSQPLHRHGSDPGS

[6] = Lipophilicity, logD of the compound by shake flask method; format: physicochemical; conditions: octanol/water
[7] = biological target: T5, Monoglyceride lipase (Rattus norvegicus) (UniProt Q8R431); experiment: Binding affinity to MAGL in rat hippocampus incubated for 1 hr in presence of MAGL inhibitor, (1-(4-fluorophenyl)-1H-indol-5-yl)(3-(4-(pyrimidin-2-yl)piperazin-1-yl)azetidin-1-yl)methanone by autoradiography; format: tissue-based; conditions: tested as the 18F-labelled form
T5 sequence (whole entry): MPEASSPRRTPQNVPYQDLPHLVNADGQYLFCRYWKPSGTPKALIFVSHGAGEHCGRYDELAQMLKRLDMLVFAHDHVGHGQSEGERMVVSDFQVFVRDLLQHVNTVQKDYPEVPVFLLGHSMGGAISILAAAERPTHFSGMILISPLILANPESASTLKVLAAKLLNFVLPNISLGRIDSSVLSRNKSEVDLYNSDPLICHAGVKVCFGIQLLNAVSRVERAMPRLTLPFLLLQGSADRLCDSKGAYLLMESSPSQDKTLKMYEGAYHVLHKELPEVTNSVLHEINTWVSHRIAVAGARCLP

[8] = biological target: T5, Monoglyceride lipase (Rattus norvegicus); experiment: Binding affinity to MAGL in rat cortex incubated for 1 hr in presence of MAGL inhibitor, (1-(4-fluorophenyl)-1H-indol-5-yl)(3-(4-(pyrimidin-2-yl)piperazin-1-yl)azetidin-1-yl)methanone by autoradiography; format: tissue-based; conditions: tested as the 18F-labelled form
[9] = biological target: T5, Monoglyceride lipase (Rattus norvegicus); experiment: Binding affinity to MAGL in rat thalamus incubated for 1 hr in presence of MAGL inhibitor, (1-(4-fluorophenyl)-1H-indol-5-yl)(3-(4-(pyrimidin-2-yl)piperazin-1-yl)azetidin-1-yl)methanone by autoradiography; format: tissue-based; conditions: tested as the 18F-labelled form
[10] = biological target: T5, Monoglyceride lipase (Rattus norvegicus); experiment: Binding affinity to MAGL in rat striatum incubated for 1 hr in presence of MAGL inhibitor, (1-(4-fluorophenyl)-1H-indol-5-yl)(3-(4-(pyrimidin-2-yl)piperazin-1-yl)azetidin-1-yl)methanone by autoradiography; format: tissue-based; conditions: tested as the 18F-labelled form
[11] = biological target: T5, Monoglyceride lipase (Rattus norvegicus); experiment: Binding affinity to MAGL in rat cerebellum incubated for 1 hr in presence of MAGL inhibitor, (1-(4-fluorophenyl)-1H-indol-5-yl)(3-(4-(pyrimidin-2-yl)piperazin-1-yl)azetidin-1-yl)methanone by autoradiography; format: tissue-based; conditions: tested as the 18F-labelled form
[12] = biological target: T6, Monoglyceride lipase (Mus musculus) (UniProt O35678); conditions: Brain, Membrane, dose 50.0 nM, time 35-210 min
T6 sequence (whole entry): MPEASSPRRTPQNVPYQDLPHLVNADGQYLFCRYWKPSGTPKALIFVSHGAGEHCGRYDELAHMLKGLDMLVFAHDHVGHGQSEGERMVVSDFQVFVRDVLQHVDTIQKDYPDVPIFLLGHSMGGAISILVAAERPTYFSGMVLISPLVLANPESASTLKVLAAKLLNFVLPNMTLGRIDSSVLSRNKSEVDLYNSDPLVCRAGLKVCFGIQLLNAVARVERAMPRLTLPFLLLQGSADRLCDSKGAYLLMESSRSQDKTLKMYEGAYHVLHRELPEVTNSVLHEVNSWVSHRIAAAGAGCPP

| SMILES | inhibition [1] | inhibition [2] | inhibition [3] | inhibition [4] | inhibition at 10 µM [5] [%] | inhibition at 10 µM (hERG (KCNH2)) [%] | logD [6] | Activity [7] | Activity [8] | Activity [9] | Activity [10] | Activity [11] | inhibition [12] |
| --- | --- | --- | --- | --- | --- | --- | --- | --- | --- | --- | --- | --- | --- |
| O=C(c1ccc2c(ccn2-c2ccc(F)cc2)c1)N1CC(N2CCN(c3ncccn3)CC2)C1 | inactive | inactive | inactive | inactive | < 50 | < 50 | 3.68 | inactive | inactive | inactive | inactive | inactive | Active |
| O=C(c1ccc2c(ccn2-c2ccc(F)cc2)c1)N1CC(N2CCN(C(=O)c3nccs3)CC2)C1 | inactive | inactive | inactive | inactive |  |  | 3.28 |  |  |  |  |  |  |
